Experimental data as given in US6399660B1, “Aminoethylphenoxyacetic acid derivatives and drugs for pain remission and calculi removal promotion in urinary lithiasis” (Kissei Pharmaceutical Co., Ltd., priority 1997, dated 2002).

Experiments:
Type in all cases: cell-based
β1-Adrenoceptor = biological target: T1, β1-Adrenoceptor (Rattus norvegicus, UniProt P18090); assay: β1-Adrenoceptor stimulating effects: heart rate increase in isolated rat atrium (Magnus method); settings: isolated atria of male SD rats
T1 construct: Atria of male SD rats (350 to 400 g in body weight) were isolated; from tissue; host or cells: isolated atria of male SD rats
T1 sequence (P18090 whole entry): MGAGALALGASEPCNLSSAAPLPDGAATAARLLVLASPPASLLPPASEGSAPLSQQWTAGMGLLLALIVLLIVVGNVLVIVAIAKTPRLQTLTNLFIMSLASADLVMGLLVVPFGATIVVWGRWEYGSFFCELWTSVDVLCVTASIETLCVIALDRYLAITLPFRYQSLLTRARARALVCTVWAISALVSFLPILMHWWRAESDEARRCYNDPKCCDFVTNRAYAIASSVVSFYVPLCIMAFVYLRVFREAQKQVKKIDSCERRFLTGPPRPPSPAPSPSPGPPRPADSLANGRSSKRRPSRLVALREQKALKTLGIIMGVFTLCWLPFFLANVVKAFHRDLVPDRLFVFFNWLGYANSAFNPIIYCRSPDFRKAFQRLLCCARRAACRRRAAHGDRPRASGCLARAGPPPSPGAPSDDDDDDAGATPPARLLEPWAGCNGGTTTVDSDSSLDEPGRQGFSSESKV
Procedure: Atria of male SD rats (350 to 400 g in body weight) were isolated and the experiment was conducted according to the Magnus methods. The preparations with a tension of 1 g were exposed to Krebs-Henseleit solution maintained at 37° C. and gassed with a mixture of 95% oxygen and 5% carbon dioxide. The cardiac contractility was isometrically measured with a force-displacement transducer and recorded by a rectigraph. The drug efficacy was evaluated as the molar concentration required to produce 20 beats/minute increment of the heart rate (i.e., ECΔ20 value).

β2-Adrenoceptor = biological target: T2, β2-Adrenoceptor (Rattus norvegicus, UniProt P10608); assay: β2-Adrenoceptor stimulating effects: inhibition of spontaneous contractions of isolated pregnant rat uterus (Magnus method); settings: isolated uterus of pregnant SD rats (day 21), cumulative addition every 5 minutes, read-out: EC50 value (concentration required to produce 50% inhibition of uterine contractions), Test Example 1
T2 construct: Uteri of pregnant SD rats (pregnancy day 21) were isolated and longitudinal smooth muscle strips; from tissue; host or cells: longitudinal smooth muscle strips of pregnant SD rat uterus (day 21)
T2 sequence (P10608 whole entry): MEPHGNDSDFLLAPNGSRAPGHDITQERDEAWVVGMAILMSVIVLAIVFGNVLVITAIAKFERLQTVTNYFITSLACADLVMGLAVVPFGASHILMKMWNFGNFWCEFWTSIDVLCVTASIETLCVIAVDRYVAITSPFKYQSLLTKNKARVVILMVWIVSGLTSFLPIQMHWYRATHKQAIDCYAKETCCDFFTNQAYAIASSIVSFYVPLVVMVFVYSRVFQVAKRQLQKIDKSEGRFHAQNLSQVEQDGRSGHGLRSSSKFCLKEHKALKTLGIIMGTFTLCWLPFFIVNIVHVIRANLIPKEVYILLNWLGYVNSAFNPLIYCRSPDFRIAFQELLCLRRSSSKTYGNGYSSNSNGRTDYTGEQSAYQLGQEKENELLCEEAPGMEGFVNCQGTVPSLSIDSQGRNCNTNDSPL
Procedure: Uteri of pregnant SD rats (pregnancy day 21) were isolated and longitudinal smooth muscle strips of approximately 15 mm in length and approximately 5 mm in width free from the basal plate were prepared. The experiment was conducted according to the Magnus method. The preparations with a tension of 1 g were exposed to Locke-Ringer solution maintained at 37° C. and gassed with a mixture of 95% oxygen and 5% carbon dioxide. Spontaneous contractions of myometrium were isometrically measured with a force-displacement transducer and recorded by a rectigraph. The drug was cumulatively added to the Magnus bath every 5 minutes. The drug efficacy was evaluated as the concentration of the drug required to produce 50% of the inhibition of uterine contractions (i.e., EC50 value) by comparing the sum of uterine contractions during 5 minutes after the addition of the drug with the sum of uterine contractions during 5 minutes before the addition of the drug (100%).

β3-Adrenoceptor = β3-Adrenoceptor (Mustela putorius furo, UniProt M3YEU4); assay: β3-Adrenoceptor stimulating effects: inhibition of spontaneous contractions of isolated ferret ureter (Magnus method); settings: isolated male ferret ureter, cumulative addition every 3 minutes, read-out: EC50 value (concentration required to produce 50% inhibition of ureter contractions), Test Example 2
β3-Adrenoceptor, sequence (M3YEU4 entry or part of it): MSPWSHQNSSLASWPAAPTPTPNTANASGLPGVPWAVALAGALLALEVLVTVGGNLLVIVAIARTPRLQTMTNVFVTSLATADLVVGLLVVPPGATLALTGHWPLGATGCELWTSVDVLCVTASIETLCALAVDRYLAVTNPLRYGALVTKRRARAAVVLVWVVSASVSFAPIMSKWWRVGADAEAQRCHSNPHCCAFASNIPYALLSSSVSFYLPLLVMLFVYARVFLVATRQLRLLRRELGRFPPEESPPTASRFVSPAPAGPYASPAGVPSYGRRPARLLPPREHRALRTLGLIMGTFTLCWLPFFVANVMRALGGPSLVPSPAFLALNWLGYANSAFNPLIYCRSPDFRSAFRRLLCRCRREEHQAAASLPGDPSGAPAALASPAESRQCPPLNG
Procedure: After removal of connective tissue, longitudinal smooth muscle strips of approximately 20 mm in length were prepared. The experiment was conducted according to the Magnus method. The preparations with a tension of 0.5 g were exposed to Krebs-Henseleit solution maintained at 37° C. and gassed with a mixture of 95% oxygen and 5% carbon dioxide. Spontaneous contractions of ureters were isometrically measured with a force-displacement transducer and recorded by a rectigraph. The drug was cumulatively added to the Magnus bath every 3 minutes.

Row | Compound | ECΔ20 value (molar concentration required to produce 20 beats/minute increment of the heart rate), Test Example 3 (β1-Adrenoceptor) [nM] | EC50 (β2-Adrenoceptor) [µM] | ECΔ20 value (molar concentration required to produce 20 beats/minute increment of the heart rate), Test Example 3 (β1-Adrenoceptor; listed as 2-[4-[2-[[(1S,2R)-2-hydroxy-2-(4-hydroxyphenyl)-1-methylethyl]amino]ethyl]phenox) [nM] | EC50 (β3-Adrenoceptor) [µM]
1 | C[C@H](NCCc1ccc(OCC(=O)OCc2ccccc2)cc1F)[C@H](O)c1ccc(O)cc1.Cl [Compound 7, Benzyl 2-[3-fluoro-4-[2-[[(1S,2R)-2-hydroxy-2-(4-hydroxyphenyl)-1-methylethyl]amino]ethyl]phenoxy]acetate hydrochloride] | 300 | 0.0033 | – | –
2 | C[C@H](NCCc1ccc(OCC(=O)O)cc1Cl)[C@H](O)c1ccc(O)cc1 [Compound 8, 2-[3-Chloro-4-[2-[[(1S,2R)-2-hydroxy-2-(4-hydroxyphenyl)-1-methyl-ethyl]amino]ethyl]phenoxy]acetic acid] | 110 | 0.013 | – | –
3 | C[C@H](NCCc1ccc(OCC(=O)O)cc1)[C@H](O)c1ccc(O)cc1 [Compound 9, 2-[4-[2-[[(1S,2R)-2-Hydroxy-2-(4-hydroxyphenyl)-1-methylethyl]-amino]ethyl]phenoxy]acetic acid] | 1300 | – | 1300 | 0.014
4 | C[C@H](NCCc1ccc(OCC(=O)O)cc1F)[C@H](O)c1ccc(O)cc1 [Compound 10, 2-[3-Fluoro-4-[2-[[(1S,2R)-2-hydroxy-2-(4-hydroxyphenyl)-1-methyl-ethyl]amino]ethyl]phenoxy]acetic acid] | 1000 | 0.039 | – | –
